Measurements taken from patent US12590071B2, “Hydrazone derivative in which terminal amine group is substituted with aryl group or heteroaryl group, and use thereof” (KOREA INSTITUTE OF SCIENCE AND TECHNOLOGY, priority 2018, dated 2026).

Key:
[1] = Liver microsomal stability (rat); format: in vitro ADME; details: amount of substrate remaining; 1 μM, 0.25 mg/mL microsomes, 37° C., 30 minutes
Procedure: (§1) The liver microsomal stability of the compounds prepared according to Examples 1 to 171 was confirmed. Specifically, four kinds of liver microsomes (human, dog, rat, and mouse, each 0.25 mg/mL), a 0.1 M phosphate buffer solution (pH 7.4), and the compounds with a concentration of 1 μM were added, respectively. Then the mixture was cultured in advance at 37° C. for 5 minutes, and then further cultured at 37° C. for 30 minutes together with the addition of an NADPH generation system solution. Thereafter, a reaction was terminated by adding an acetonitrile solution containing an internal standard material (chloropropamide), centrifugal separation (14,000 rpm, 4° C.) was performed for 5 minutes, and then a supernatant was injected into an LC-MS/MS system. The substrate drugs were analyzed to evaluate the metabolic stability for 8 kinds of compounds.
(§2) The amount of substrate remaining through the reaction was analyzed using the Shimadzu Nexera XR system and TSQ vantage (Thermo). Kinetex XB-C18 (2.1 mm×100 mm, 2.6 μm, particle size; Phenomenex, USA) was used in an HPLC column, and (A) distilled water containing 0.1% formic acid and (B) acetonitrile containing 0.1% formic acid were used as mobile phases. Analyst software (version 1.6.3) and Xcalibur (version 1.6.1) were used for data analysis.

[2] = Liver microsomal stability (mouse); format: in vitro ADME; details: amount of substrate remaining; 1 μM, 0.25 mg/mL microsomes, 37° C., 30 minutes
Procedure: as §1, §2

[3] = system: Tau-BiFC cells; assay: Cytotoxicity (cell survival rate) in tau-BiFC cells; details: group treated with Forskolin alone = 100%
Procedure: (§3) In order to select new tau protein aggregation-inhibiting materials, tau-BiFC cell models, in which it is easy to observe the formation of tau oligomers in living cells, were used. […] After 48 hours, intracellular nuclei were stained using Hoechst (treatment concentration 2 μg/mL), and BiFC fluorescence intensity was automatically quantified using Operetta (PerkinElmer) to count stained nuclei in each well from the total well plates. […] Further, the degree of cytotoxicity induced by the newly synthesized compound is also based on the 100% survival rate of the group treated with Forskolin alone, and the cytotoxicity value of the compound was calculated by the equation “number of stained nuclei in the group treated with the compound/number of stained nuclei in the group treated with Forskolin x 100”.
(§4) In order to evaluate dose-dependent tau protein aggregation inhibition effects of the compounds selected according to Experimental Example 1, the selected compounds were treated in tau-BiFC cells at concentrations of 0.03 µM, […], 0.3 μM, 1 μM, 3 μM, 10 μM, and 30 μM, respectively, together with Forskolin (treatment concentration 30 µM) as a tau protein aggregation inducing material. After 48 hours, tau protein aggregation reaction and cytotoxicity degree were analyzed by observing cell images. The IC50 and toxicity of the compounds were analyzed by nonlinear regression analysis of prism software (Graph Pad).

[4] = biological target: T1, tau protein (Homo sapiens, UniProt P10636); assay: Tau protein aggregation inhibition in tau-BiFC cell model; format: cell-based; details: tau-BiFC cells treated together with Forskolin, 48 hours
T1 construct: expressed in transfected cells
Procedure: as §3, §4

[5] = Liver microsomal stability (human); format: in vitro ADME; details: amount of substrate remaining; 1 μM, 0.25 mg/mL microsomes, 37° C., 30 minutes
Procedure: as §1, §2

[6] = biological target: T2, CYP2C19 (Homo sapiens, UniProt P33261); assay: Inhibition of CYP coenzyme activity in human liver microsomes; format: in vitro ADME; details: compound 10 PM (so in the source); human liver microsomes 0.25 mg/mL; substrate S-mephenytoin; 15 minutes
T2 construct: human liver microsomes (0.25 mg/mL); from tissue; host or cells: human liver microsomes
Procedure: (§5) 5 The inhibition effects of CYP coenzyme activity by the compounds prepared according to Examples 1 to 171 was confirmed. Specifically, human liver microsomes (0.25 mg/mL), a 0.1 M phosphate buffer solution (pH 7.4), substrate drug cocktails (phenacetin 50 μM, diclofenac 10 μM, S-mephenytoin 100 μM, dextromethorphan 5 μM, and midazolam 2.5 μM) of five kinds of drug metabolism enzymes, and the compounds with a concentration of 0 μM or 10 PM were added, respectively. Then the mixture was cultured in advance at 37° C. for 5 minutes, and then further cultured at 37° C. for 15 minutes together with the addition of an NADPH generation system solution. Thereafter, a reaction was terminated by adding an acetonitrile solution containing an internal standard material (terfenadine), centrifugal separation (14,000 rpm, 4° C.) was performed for 5 minutes, and then a supernatant was injected into an LC-MS/MS system. Metabolites of the substrate drugs were simultaneously analyzed to evaluate the drug metabolism inhibition ability.
(§6) Metabolites of each CYP coenzyme indicator drug generated through the reaction were analyzed using the Shimadzu Nexera XR system and TSQ vantage (Thermo). Kinetex C18 (2.1 mm×100 mm, 2.6 μm, particle size; Phenomenex, USA) was used in an HPLC column, and (A) distilled water containing 0.1% formic acid and (B) acetonitrile containing 0.1% formic acid were used as mobile phases, and the gradient program shown in Table 2 was applied.
(§7) The generated metabolites were quantified using an MRM (multiple reaction monitoring) quantification mode, and Xcalibur (version 1.6.1) was used for data analysis.

[7] = biological target: T3, CYP1A2 (Homo sapiens, UniProt P05177); assay: as above; format: in vitro ADME; details: compound 10 PM (so in the source); human liver microsomes 0.25 mg/mL; substrate phenacetin; 15 minutes
T3 construct: human liver microsomes (0.25 mg/mL); from tissue; host or cells: human liver microsomes
T3 sequence (P05177 1-516): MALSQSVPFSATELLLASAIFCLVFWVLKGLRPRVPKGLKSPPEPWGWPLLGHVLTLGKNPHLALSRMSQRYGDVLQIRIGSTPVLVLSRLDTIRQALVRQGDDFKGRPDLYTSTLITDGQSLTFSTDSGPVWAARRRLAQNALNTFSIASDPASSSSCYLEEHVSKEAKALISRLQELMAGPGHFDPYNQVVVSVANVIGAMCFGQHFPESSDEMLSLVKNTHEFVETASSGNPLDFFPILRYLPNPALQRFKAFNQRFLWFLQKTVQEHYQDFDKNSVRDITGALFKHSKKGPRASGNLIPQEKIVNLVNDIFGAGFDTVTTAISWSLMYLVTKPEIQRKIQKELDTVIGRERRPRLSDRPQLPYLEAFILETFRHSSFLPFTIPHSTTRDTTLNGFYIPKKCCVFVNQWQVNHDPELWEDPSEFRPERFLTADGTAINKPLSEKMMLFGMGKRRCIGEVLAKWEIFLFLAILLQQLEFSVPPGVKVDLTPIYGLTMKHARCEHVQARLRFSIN
Procedure: as §5, §6, §7

[8] = biological target: T4, CYP2D6 (Homo sapiens, UniProt P10635); assay: as above; format: in vitro ADME; details: compound 10 PM (so in the source); human liver microsomes 0.25 mg/mL; substrate dextromethorphan; 15 minutes
T4 construct: human liver microsomes (0.25 mg/mL); from tissue; host or cells: human liver microsomes
Procedure: as §5, §6, §7

[9] = biological target: T5, CYP2C9 (Homo sapiens, UniProt P11712); assay: as above; format: in vitro ADME; details: compound 10 PM (so in the source); human liver microsomes 0.25 mg/mL; substrate diclofenac; 15 minutes
T5 construct: human liver microsomes (0.25 mg/mL); from tissue; host or cells: human liver microsomes
Procedure: as §5, §6, §7

[10] = Liver microsomal stability (dog); format: in vitro ADME; details: amount of substrate remaining; 1 μM, 0.25 mg/mL microsomes, 37° C., 30 minutes
Procedure: as §1, §2

[11] = biological target: T6, CYP3A4 (Homo sapiens, UniProt P08684); assay: Inhibition of CYP coenzyme activity in human liver microsomes; format: in vitro ADME; design: scale not given here; details: compound 10 PM (so in the source); human liver microsomes 0.25 mg/mL; substrate midazolam; 15 minutes
T6 construct: human liver microsomes (0.25 mg/mL); from tissue; host or cells: human liver microsomes
Procedure: as §5, §6, §7

T2 sequence (P33261 whole entry): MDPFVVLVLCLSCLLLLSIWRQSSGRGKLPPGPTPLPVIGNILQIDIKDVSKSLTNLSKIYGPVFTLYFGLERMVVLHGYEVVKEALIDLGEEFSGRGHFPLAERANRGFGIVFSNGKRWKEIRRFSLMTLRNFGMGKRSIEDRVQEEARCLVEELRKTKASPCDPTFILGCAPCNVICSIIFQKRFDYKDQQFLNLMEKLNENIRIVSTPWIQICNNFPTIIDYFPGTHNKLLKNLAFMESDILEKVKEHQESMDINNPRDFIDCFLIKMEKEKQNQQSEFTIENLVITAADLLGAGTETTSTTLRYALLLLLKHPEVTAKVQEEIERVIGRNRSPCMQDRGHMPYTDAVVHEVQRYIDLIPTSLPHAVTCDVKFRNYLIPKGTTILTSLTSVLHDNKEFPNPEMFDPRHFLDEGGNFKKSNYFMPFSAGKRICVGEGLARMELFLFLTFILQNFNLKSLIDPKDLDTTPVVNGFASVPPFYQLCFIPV
T6 sequence (P08684 whole entry): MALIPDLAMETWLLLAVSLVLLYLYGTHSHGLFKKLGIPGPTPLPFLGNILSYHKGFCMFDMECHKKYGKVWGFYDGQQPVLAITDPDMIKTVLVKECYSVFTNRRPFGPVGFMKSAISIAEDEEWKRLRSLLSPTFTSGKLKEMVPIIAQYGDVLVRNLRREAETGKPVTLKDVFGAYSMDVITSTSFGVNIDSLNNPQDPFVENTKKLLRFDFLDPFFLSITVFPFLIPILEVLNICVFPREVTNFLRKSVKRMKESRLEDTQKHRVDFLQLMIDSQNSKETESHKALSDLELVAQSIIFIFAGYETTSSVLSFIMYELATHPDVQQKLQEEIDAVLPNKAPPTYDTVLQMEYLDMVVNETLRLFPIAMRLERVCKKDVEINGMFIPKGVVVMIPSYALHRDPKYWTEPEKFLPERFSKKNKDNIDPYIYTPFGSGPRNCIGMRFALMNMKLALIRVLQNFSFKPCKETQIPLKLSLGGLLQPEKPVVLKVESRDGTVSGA
T4 sequence (P10635 whole entry): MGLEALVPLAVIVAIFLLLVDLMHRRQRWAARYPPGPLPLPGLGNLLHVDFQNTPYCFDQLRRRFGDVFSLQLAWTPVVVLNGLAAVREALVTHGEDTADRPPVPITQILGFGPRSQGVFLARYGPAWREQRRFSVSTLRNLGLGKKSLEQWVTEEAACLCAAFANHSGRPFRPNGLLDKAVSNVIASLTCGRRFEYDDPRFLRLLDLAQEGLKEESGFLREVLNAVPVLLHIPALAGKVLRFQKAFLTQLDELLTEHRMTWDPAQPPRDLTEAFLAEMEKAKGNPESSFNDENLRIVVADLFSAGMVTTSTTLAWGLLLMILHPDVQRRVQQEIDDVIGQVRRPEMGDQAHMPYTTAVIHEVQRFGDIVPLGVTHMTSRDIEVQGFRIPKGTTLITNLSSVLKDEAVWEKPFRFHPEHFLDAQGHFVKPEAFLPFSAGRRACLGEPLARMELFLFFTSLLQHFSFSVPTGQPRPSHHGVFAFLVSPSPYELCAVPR
T5 sequence (P11712 whole entry): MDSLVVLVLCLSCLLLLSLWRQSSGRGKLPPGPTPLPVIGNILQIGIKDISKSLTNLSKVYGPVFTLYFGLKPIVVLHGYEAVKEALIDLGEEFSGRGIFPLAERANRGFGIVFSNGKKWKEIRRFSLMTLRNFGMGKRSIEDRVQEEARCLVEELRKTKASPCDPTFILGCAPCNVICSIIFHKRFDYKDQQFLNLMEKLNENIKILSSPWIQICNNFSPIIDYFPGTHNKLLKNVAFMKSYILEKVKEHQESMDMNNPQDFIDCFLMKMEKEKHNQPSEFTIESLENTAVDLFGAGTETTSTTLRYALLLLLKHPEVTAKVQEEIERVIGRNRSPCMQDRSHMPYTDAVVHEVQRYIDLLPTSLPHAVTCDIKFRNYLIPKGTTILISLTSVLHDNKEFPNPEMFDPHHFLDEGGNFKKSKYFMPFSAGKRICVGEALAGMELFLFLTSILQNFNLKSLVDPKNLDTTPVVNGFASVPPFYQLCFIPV
T1 sequence (P10636 2-441 isoform P10636-8 limits assumed): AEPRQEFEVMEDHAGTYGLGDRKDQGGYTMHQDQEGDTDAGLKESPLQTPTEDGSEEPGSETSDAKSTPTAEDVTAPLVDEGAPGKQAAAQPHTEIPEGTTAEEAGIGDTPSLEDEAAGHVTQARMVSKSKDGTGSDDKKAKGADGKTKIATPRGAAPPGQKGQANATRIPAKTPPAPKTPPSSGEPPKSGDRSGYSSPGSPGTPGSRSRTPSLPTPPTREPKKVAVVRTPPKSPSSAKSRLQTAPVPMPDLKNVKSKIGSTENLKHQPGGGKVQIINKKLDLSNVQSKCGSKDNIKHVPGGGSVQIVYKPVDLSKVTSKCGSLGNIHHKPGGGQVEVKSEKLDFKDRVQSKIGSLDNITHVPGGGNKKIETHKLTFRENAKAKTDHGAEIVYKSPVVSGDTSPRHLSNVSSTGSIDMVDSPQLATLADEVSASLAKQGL

Row | Compound | liver microsomal stability, Rat (%) [1] [%] | liver microsomal stability, Mouse (%) [2] [%] | Cell survival rate (% @ 10 μM) [3] [%] | IC50 [4] [nM] | liver microsomal stability, Human (%) [5] [%] | inhibition effects of CYP coenzyme activity, CYP2C19 [6] | inhibition effects of CYP coenzyme activity, CYP1A2 [7] | inhibition effects of CYP coenzyme activity, CYP2D6 [8] | inhibition effects of CYP coenzyme activity, CYP2C9 [9] | liver microsomal stability, Dog (%) [10] [%] | inhibition effects of CYP coenzyme activity, CYP3A4 [11]
1 | COc1cnc(-c2ccc(NN=C(C#N)C#N)cc2)nc1 [Compound 8, (4-(5-methoxypyrimidin-2-yl)-phenyl)carbonohydrazonoyl dicyanide] | 40.7 | 83.7 | 107.8 | 20 | 80.9 | >100 | 94.1 | >100 | 85.1 | 96 | >100
2 | Cc1ncsc1-c1ccc(NN=C(C#N)C#N)cc1 [Compound 12, (4-(4-methylthiazol-5-yl)phenyl)carbonohydrazonoyl dicyanide] | 25.8 | 45.2 | 119.3 | 30 | 52.2 | 81.3 | 88.1 | 87.8 | 7.4 | 81.6 | 91.6
3 | N#CC(C#N)=NNc1ccc(-n2cccn2)cc1 [Compound 35, (4-(1H-pyrazol-1-yl)phenyl)carbonohydrazonoyl dicyanide] | 56.4 | 10.7 | 100 | 1700 | 82.2 | >100 | 99.9 | >100 | 81.3 | 24.2 | >100
4 | Cc1cnn(-c2ccc(NN=C(C#N)C#N)cc2)c1 [Compound 36, (4-(4-methyl-1H-pyrazol-1-yl)phenyl)carbonohydrazonoyl dicyanide] | 20.1 | 37.9 | 99.3 | 53 | 65.9 | >100 | 86 | 98.6 | 60.7 | 60.6 | >100
5 | Cc1ccnc(-c2ccc(NN=C(C#N)C#N)c(F)c2)n1 [Compound 37, (2-fluoro-4-(4-methylpyrimidin-2-yl)phenyl)carbonohydrazonoyl dicyanide] | 25.9 | 32.7 | 88.3 | 1340 | 55.7 | 100 | 78.1 | >100 | 56.9 | 61 | >100
6 | COc1cc(-c2nccc(C)n2)ccc1NN=C(C#N)C#N [Compound 42, (2-methoxy-4-(4-methylpyrimidin-2-yl)phenyl)carbonohydrazonoyl dicyanide] | 46.5 | 47.9 | 128 | 3000 | 53.4 | 96.2 | 83.6 | >100 | 88.8 | 30.7 | >100
